Experimental findings from ChEMBL document CHEMBL1201862, “PubChem BioAssay data set” (2004) are described below.

The target of one assay is ORF 73 (Human herpesvirus 8, UniProt O40947). In words: inhibitors of C-LANA binding to LBS DNA, dose response, biochemical, fluorescence polarization, cherry-picked samples (AID 504725).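 Also: fluorescence polarization of a labeled DNA duplex reporting LANA DNA binding; potency is for inhibitors that block LANA binding to the DNA.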 Details: species or system Human gammaherpesvirus 8. (In fluorescence polarisation assays a small probe gives low polarisation when free and higher when bound to something large.)
Assay [1] has as its target T1, Tyrosine-protein phosphatase non-receptor type 22 (Homo sapiens, UniProt Q9Y2R2).
T1 sequence (Q9Y2R2 whole entry): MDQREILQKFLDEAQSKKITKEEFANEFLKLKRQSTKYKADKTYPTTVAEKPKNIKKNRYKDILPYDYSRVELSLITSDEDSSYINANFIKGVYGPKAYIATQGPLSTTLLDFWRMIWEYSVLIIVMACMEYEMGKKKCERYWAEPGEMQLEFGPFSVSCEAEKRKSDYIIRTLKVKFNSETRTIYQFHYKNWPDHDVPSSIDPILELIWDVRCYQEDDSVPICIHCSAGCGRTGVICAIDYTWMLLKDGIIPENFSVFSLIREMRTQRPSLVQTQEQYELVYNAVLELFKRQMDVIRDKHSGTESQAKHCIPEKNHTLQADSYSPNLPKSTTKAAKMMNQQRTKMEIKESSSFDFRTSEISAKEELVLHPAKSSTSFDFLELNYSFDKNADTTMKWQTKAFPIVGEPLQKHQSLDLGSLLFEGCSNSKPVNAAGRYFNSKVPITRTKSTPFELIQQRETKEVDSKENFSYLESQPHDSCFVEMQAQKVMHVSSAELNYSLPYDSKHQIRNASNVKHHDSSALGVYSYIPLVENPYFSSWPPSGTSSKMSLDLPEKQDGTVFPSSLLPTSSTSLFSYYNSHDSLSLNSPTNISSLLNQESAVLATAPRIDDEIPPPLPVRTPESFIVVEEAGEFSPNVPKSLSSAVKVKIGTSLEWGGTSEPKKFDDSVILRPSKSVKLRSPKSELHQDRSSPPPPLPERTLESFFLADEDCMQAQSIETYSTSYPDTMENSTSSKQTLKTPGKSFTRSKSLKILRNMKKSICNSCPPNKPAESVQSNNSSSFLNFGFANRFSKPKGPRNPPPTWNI
Format: functional.

The target in assay [2] is T1, Tyrosine-protein phosphatase non-receptor type 22. Format: functional. The source holds these as a separate data set.
Assay [3] has as its target T2, Tyrosine-protein phosphatase non-receptor type 7 (Homo sapiens, UniProt P35236).
T2 sequence (P35236 whole entry): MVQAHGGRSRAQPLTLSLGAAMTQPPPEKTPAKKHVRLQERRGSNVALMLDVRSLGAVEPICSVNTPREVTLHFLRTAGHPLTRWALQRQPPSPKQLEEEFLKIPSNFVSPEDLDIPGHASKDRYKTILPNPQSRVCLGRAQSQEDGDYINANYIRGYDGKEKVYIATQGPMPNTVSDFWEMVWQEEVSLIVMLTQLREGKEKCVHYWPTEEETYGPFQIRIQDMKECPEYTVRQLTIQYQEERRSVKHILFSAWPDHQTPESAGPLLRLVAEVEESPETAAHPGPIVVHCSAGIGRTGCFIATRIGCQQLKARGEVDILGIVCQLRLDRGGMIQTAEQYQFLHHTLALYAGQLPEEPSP
Format: functional.

Assay [4] addresses Beta-adrenergic receptor kinase 1 (Homo sapiens, UniProt P25098). In words: aptamer displacement from bead-bound GRK2 – biochemical, cherry pick 1, bead flow cytometry, dose response (AID 504500).
Assay [5] concerns the target Serine/threonine-protein phosphatase (Homo sapiens, UniProt Q9BPW0). In words: Counterscreen for inhibitors of PP1: fluorescence-based biochemical high throughput dose response assay to identify inhibitors of Protein Phosphatase 5 (PP5). [Related pubchem assays: 2034 (Summary (PP5 inhibitors)), 1987 (PP5 inhibitors in singlate), 2235 (PP1 inhibitors in singlate)]. A general note: A counterscreen serves to expose hits that act by an unwanted route or on another target.

Assay [6] deals with DNA (cytosine-5)-methyltransferase 1 (Homo sapiens, UniProt P26358). In words: DNMT1 methyltransferase inhibitors, confirmation, biochemical, fluorescent molecular beacon (AID 602386). Format: functional.
The target of assay [7] is T1, Tyrosine-protein phosphatase non-receptor type 22. In words: inhibitors of LYP phosphatase, biochemical, fluorescence intensity, uHTS (AID 1779).
The target of assay [8] is T2, Tyrosine-protein phosphatase non-receptor type 7. In words: HTS HePTP Fluorescent Assay using OMFP substrate for In Vitro dose response studies. [Related pubchem assays (depositor defined):AID1059, AID1077, AID1784, AID2068, AID2085, AID435032, AID521]. Format: functional.
For assay [9], the target named is T3, Carboxy-terminal domain RNA polymerase II polypeptide A small phosphatase 1 (Homo sapiens, UniProt Q9GZU7).
T3 sequence (Q9GZU7 whole entry): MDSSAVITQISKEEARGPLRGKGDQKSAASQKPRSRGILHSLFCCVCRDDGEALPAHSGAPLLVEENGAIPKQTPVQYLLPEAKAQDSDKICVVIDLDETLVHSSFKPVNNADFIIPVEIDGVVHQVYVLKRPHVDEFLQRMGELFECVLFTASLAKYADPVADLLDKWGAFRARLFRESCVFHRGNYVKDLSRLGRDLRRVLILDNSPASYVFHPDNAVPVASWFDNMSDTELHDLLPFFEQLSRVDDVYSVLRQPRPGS
In words: inhibitors of CTDSP1, concentration-response testing, biochemical assay, absorbance-based, actives from ultra-high-throughput screening (AID 540297). Format: functional.

Assay [10] has as its target Serine/threonine-protein phosphatase PP1-alpha catalytic subunit (Homo sapiens, UniProt P62136). In words: PP1 phosphatase inhibitors, dose response, biochemical, fluorescence (AID 2403).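 Also: phosphatase turnover of OMFP into fluorescent 3-O-methylfluorescein.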
For assay [11], the target named is T1, Tyrosine-protein phosphatase non-receptor type 22. In words: LYP1 Fluorescent Assay using OMFP substrate for In Vitro dose response studies. [Related pubchem assays (depositor defined):AID1779, AID1784, AID435024].
The target of assay [12] is T4, Apoptotic protease-activating factor 1 (Homo sapiens, UniProt O14727).
T4 sequence (O14727 whole entry): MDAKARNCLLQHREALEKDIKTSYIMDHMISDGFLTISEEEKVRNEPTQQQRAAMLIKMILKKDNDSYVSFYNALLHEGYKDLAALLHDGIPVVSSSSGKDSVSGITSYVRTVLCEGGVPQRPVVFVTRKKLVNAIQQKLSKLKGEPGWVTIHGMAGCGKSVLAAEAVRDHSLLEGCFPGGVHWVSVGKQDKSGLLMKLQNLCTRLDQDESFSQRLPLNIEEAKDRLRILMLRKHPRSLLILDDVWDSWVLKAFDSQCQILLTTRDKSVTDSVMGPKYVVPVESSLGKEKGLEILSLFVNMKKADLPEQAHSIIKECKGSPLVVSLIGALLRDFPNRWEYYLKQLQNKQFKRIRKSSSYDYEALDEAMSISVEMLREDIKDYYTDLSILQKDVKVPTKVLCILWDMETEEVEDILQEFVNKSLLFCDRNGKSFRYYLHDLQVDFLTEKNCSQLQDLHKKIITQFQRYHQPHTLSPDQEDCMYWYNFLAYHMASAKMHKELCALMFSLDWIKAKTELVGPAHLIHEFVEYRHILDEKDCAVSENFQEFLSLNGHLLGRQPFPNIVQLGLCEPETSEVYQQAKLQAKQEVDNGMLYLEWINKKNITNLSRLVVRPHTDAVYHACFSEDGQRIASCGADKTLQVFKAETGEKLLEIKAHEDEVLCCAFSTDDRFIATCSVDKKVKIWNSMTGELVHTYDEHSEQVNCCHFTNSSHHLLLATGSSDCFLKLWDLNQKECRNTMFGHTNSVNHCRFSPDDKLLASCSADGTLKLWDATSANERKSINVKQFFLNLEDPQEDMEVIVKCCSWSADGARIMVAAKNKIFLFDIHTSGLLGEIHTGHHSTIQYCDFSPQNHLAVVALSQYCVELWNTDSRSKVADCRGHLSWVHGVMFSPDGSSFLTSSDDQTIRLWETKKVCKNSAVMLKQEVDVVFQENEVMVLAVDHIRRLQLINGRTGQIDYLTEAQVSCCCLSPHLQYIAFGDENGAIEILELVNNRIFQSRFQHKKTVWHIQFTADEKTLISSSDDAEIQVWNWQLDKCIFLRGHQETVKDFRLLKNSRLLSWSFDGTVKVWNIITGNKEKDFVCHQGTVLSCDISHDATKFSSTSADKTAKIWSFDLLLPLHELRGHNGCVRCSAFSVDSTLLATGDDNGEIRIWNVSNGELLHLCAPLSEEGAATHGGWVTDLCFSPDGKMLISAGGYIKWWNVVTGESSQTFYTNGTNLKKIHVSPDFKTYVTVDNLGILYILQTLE
In words: activation of Apaf-1 mediated apoptosis – fluorescent, uHTS hits, dose response (AID 588554). Format: functional.

For another assay, the target named is DNA topoisomerase (Yersinia pestis, UniProt A0A2S9PM60). In words: Y. pestis Topo-I inhibitors, cleavage product readout, dose response, biochemical, cherry-pick (AID 588525).

One may read the AC50 as the concentration giving half of the maximal activity seen. Broadly, the IC50 is the concentration that gives 50% inhibition. For orientation: EC50 means the concentration needed to bring the measured effect to its halfway point.

Calls of active or inactive are those of the source. Bounds are passed on as bounds.

Sequence of Serine/threonine-protein phosphatase PP1-alpha catalytic subunit (P62136 whole entry): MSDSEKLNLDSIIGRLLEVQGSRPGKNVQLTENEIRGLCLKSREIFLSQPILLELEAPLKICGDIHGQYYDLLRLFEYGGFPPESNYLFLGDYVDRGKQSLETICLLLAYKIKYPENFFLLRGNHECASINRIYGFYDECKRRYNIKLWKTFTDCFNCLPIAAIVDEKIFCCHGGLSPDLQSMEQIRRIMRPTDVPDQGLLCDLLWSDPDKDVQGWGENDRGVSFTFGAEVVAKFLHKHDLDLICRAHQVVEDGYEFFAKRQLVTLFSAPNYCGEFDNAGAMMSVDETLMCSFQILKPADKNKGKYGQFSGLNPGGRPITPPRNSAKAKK
Sequence of Beta-adrenergic receptor kinase 1 (P25098 whole entry): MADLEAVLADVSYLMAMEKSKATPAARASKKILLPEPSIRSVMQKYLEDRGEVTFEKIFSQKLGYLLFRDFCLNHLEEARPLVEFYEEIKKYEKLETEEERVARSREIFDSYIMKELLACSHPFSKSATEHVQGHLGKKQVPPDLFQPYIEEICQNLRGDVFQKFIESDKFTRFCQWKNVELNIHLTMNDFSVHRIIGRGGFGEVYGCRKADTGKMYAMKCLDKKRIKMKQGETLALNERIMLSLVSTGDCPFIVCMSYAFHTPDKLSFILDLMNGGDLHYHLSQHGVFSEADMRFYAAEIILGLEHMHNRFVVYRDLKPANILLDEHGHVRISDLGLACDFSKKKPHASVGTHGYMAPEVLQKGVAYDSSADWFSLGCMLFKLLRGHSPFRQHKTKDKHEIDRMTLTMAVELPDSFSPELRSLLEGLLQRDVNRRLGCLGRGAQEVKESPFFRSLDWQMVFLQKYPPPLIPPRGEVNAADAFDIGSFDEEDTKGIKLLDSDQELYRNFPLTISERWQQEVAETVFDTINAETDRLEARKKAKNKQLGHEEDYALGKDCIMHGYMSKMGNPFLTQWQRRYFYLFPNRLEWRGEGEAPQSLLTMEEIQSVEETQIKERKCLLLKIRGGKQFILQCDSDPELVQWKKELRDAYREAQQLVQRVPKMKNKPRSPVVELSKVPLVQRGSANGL
Sequence of DNA (cytosine-5)-methyltransferase 1 (P26358 whole entry): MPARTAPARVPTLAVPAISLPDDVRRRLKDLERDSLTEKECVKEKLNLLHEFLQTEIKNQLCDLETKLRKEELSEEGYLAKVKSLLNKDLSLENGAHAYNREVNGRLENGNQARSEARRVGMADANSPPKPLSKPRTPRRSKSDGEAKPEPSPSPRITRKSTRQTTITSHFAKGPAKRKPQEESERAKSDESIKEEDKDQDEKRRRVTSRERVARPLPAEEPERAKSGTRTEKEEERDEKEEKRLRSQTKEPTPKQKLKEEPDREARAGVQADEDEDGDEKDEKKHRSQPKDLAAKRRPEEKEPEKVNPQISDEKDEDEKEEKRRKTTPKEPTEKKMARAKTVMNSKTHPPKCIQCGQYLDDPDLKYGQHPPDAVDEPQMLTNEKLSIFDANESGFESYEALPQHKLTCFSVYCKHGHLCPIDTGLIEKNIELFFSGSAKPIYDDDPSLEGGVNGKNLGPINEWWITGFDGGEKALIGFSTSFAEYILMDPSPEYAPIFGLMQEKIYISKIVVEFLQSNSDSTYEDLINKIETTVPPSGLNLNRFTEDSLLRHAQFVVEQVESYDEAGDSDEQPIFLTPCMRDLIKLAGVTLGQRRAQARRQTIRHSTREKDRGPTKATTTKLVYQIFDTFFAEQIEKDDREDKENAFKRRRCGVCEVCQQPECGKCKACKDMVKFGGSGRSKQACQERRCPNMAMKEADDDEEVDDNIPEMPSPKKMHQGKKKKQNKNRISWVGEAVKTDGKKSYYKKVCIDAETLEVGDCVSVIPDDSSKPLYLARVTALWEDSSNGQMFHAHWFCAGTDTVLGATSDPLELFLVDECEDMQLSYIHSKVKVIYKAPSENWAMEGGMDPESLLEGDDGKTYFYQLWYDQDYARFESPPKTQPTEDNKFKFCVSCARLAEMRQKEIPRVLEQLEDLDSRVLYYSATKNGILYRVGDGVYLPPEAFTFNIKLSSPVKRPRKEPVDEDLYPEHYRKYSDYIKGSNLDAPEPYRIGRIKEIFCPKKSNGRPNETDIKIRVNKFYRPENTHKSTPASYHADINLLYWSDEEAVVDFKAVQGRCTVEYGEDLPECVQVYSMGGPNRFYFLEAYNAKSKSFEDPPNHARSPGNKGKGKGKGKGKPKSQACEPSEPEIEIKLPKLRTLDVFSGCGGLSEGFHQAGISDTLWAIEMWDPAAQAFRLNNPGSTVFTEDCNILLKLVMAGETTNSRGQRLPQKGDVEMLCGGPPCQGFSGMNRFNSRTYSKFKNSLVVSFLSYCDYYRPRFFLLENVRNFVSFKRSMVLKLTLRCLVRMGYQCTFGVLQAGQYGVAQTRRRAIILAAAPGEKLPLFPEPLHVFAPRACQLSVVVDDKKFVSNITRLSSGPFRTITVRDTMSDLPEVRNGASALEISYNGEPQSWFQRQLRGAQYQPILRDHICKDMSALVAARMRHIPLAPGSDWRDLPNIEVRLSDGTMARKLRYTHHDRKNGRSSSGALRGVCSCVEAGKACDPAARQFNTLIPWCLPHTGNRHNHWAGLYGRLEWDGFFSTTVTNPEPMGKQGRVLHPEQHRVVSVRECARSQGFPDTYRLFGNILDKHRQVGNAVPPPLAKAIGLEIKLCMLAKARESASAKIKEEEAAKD
Sequence of DNA topoisomerase (A0A2S9PM60 whole entry): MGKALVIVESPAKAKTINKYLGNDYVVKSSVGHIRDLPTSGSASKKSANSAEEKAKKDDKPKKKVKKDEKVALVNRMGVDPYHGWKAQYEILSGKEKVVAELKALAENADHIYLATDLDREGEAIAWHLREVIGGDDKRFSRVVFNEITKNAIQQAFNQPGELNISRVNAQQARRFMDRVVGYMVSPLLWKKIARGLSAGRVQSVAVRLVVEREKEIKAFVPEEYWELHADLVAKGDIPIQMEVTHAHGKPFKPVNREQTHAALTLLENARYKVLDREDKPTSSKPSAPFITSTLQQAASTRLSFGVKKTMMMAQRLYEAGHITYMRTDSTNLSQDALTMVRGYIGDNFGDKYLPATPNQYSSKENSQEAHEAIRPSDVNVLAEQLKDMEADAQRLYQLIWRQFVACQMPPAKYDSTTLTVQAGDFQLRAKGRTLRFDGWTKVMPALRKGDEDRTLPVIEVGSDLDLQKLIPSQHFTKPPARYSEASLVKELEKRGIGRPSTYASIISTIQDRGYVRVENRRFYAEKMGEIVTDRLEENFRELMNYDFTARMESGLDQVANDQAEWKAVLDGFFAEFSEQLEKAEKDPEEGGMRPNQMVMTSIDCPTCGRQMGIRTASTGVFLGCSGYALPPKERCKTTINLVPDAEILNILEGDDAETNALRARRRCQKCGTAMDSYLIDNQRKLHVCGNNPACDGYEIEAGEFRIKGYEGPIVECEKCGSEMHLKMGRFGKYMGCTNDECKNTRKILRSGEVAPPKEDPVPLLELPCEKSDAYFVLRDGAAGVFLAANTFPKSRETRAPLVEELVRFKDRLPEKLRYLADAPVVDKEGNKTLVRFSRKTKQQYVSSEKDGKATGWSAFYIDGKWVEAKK
Sequence of ORF 73 (O40947 whole entry): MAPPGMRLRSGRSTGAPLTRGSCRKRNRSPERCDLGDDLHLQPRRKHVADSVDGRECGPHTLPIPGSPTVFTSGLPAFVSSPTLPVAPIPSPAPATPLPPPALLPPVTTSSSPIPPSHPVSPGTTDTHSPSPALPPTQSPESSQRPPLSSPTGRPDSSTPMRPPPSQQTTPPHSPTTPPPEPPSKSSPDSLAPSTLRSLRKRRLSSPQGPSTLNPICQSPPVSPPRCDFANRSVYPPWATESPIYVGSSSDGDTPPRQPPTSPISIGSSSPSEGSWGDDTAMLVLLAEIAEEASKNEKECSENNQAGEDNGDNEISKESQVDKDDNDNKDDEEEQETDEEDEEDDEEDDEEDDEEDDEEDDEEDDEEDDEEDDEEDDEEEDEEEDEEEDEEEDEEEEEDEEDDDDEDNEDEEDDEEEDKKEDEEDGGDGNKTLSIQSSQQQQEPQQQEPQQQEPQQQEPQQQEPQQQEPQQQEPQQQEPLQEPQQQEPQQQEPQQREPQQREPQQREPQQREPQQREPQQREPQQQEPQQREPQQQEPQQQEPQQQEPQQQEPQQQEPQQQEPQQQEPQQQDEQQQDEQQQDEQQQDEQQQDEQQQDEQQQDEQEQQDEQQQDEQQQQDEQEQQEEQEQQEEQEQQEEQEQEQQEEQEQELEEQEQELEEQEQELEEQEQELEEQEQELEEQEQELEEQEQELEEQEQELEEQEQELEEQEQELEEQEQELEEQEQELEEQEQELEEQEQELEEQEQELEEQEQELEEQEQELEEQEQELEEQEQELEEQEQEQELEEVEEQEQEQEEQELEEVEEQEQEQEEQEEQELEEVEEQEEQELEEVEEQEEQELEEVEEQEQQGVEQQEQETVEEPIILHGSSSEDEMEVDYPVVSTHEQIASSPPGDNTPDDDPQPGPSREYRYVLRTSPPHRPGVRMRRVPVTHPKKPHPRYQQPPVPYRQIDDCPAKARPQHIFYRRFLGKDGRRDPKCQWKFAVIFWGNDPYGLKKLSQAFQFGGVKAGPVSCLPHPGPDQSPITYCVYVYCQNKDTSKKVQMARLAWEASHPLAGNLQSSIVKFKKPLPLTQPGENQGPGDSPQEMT
Sequence of Serine/threonine-protein phosphatase (Q9BPW0 whole entry): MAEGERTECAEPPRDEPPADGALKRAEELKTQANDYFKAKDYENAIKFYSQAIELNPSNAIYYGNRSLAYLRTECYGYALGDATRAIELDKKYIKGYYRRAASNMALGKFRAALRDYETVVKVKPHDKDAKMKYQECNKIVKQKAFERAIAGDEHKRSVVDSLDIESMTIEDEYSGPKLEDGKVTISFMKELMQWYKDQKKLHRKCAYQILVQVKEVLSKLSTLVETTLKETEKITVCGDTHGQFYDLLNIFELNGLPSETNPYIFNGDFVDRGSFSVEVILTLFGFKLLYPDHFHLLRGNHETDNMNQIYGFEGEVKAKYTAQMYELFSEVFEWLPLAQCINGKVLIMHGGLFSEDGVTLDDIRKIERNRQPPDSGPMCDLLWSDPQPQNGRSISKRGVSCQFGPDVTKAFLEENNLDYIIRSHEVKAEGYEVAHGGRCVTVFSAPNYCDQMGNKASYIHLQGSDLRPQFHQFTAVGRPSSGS

As to `CC(C)(CS(=O)(=O)[O-])NC(=O)CC[N+](C)(C)CCO`, the AC50 on ORF 73 is 39.8 µM (active). Further, the IC50 in assay [1] was 5.97 µM (active); in assay [2], 4.08 µM (active); in assay [3], 17.9 µM (active); in [5], > 67 µM (not active); in [6] it was 3.6 µM (active); in assay [7] it was 10.9 µM (active). Further, the IC50 is 28.6 µM (active) in assay [8], 0.453 µM (active) in [9], 2.46 µM (active) in [10] and 4.28 µM (active) in assay [11]. Moreover, the EC50 in assay [4] was 0.67 µM (active); in assay [12], 1.16 µM (active).

As for `CCOc1ccc(N2C(=O)CC(N3CCN(c4ccc(C(=O)c5ccncc5)cc4)CC3)C2=O)cc1` (centres undefined), on DNA topoisomerase, the AC50 is 10.6 µM (active).
